Tests used:
[1] = target: CHI3L1/galectin-3 interaction (hCHI3L1-His with galectin-3-GST) (Homo sapiens, UniProt P36222); assay: AlphaLISA, inhibition of CHI3L1/galectin-3 interaction; assay type: binding
CHI3L1 (hCHI3L1-His) = CHI3L1 (hCHI3L1-His) (Homo sapiens, UniProt P36222); assay: SPR; assay type: binding
Chain of CHI3L1 (hCHI3L1-His) (P36222 22-383): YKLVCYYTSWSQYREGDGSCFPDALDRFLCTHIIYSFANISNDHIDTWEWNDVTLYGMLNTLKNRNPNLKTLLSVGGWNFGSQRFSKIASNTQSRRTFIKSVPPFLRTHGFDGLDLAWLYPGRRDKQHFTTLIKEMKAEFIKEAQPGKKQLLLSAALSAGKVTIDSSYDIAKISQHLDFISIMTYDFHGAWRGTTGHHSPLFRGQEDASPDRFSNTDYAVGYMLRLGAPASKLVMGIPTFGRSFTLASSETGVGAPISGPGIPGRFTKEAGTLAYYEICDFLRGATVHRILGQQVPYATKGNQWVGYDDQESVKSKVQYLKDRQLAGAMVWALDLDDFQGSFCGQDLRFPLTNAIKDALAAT

Chain of CHI3L1/galectin-3 interaction (hCHI3L1-His with galectin-3-GST) (P36222 22-383): as above
Chain of CHI3L1/galectin-3 interaction (hCHI3L1-His with galectin-3-GST) (P17931 2-250 partner): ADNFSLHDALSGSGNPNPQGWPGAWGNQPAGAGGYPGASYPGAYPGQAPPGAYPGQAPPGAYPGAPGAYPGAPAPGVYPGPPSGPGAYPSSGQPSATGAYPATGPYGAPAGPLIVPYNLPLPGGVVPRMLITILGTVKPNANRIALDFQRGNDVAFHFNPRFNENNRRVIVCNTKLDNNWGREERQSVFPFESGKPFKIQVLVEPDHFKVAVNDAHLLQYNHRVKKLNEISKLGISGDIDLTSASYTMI

IC50 [1] [µM] | Kd (CHI3L1 (hCHI3L1-His)) [µM] | Structure (SMILES)
15.4 ± 4.7 | 7.4 ± 0.78 | Cc1c(NC(=O)Cn2cnc3sccc3c2=O)cnn1C1CCCC1 [1-7]
23.5 ± 2 | 10.4 ± 1 | CC1Cc2ccccc2CN1C(=O)NCc1cc(=O)n2ccccc2n1 (stereo not shown) [1-4]

— paper doi:10.1101/2025.08.24.671973v1 (biorxiv, 2025)
